The text below walks through data of US20240390383A1, “DIOXAZINES AND THEIR USE IN TREATMENT OF GBA-RELATED DISEASES” (ZEVRA DENMARK A/S, priority 2021, published 2024).

This experiment has as its target T1, GCase (GBA) in human fibroblast cell line GM10915 harboring the L444P GBA mutation (Homo sapiens, UniProt P04062, L483P).
T1 construct: Human fibroblast cell line GM10915 harboring the L444P GBA mutation; host or cells: GM10915 human fibroblasts
T1 sequence (P04062 40-536 L483P): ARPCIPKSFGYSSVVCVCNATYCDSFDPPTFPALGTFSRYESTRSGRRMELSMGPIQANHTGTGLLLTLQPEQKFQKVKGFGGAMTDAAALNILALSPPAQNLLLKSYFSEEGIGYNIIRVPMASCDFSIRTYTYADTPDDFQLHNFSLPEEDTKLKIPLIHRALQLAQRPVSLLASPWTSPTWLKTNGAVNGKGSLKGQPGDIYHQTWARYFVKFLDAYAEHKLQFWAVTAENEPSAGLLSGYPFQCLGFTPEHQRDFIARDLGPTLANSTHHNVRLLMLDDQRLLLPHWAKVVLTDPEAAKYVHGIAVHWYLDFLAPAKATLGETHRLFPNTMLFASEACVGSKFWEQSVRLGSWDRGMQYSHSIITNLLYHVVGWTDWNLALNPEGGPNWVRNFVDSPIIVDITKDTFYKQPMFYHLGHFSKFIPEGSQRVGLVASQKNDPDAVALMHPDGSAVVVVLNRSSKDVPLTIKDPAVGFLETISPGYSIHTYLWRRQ
Put plainly: GCase activity assay (4-MUG substrate, normalised to crystal violet staining) in L444P GBA fibroblasts. The class given is cell-based. The conditions noted are these: 5 days exposure; for GBA EC1.5: concentration giving 150% GCase activity (1.5-fold induction), 8-point dose range. The procedure, abridged: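 Patient fibroblasts GM10915 (L444P GBA) exposed to compounds for five days over an 8-point range, with fresh dosing every 2–3 days. Intact-cell GCase measured with 2.5 mM 4-MUG at pH 4.0 for 23 h at 37 °C (ex/em 365/445 nm), normalised to crystal violet, as % of PBS basal; Emax is the maximum reached.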

Setting [1] is: maximum percent GCase activity relative to untreated cells in the dose range tested.

Several values for one entry are separate records, joined by “and”; a condition that tells them apart may be missing. Identical values can stand only once.

As a reminder, the Emax is the maximal effect, on the per cent scale that the assay sets. `CN1CCC(C2=NOCC(C)(CN3CCCCC3)O2)CC1` (stereo not drawn) [compound 870]: the “GBA EC1.5” value was determined as 6 µM. The Emax under setting [1] turned out to be 217%.

In the case of `CC1ON=C(C2(C)CCNCC2)OC1CN1CCCCC1` (racemic) [compound 531, rac-6-methyl-3-(4-methylpiperidin-4-yl)-5-(piperidin-1-ylmethyl)-5,6-dihydro-1,4,2-dioxazine], the “GBA EC1.5” value was found to be 7 µM. Under setting [1], this compound displayed an Emax of 282%.

Consider `CC1(C2=NOCC(CN3CCCCC3)O2)CNC1` (racemic) [compound 549, rac-3-(3-methylazetidin-3-yl)-5-(piperidin-1-ylmethyl)-5,6-dihydro-1,4,2-dioxazine], for which the “GBA EC1.5” value is 36 µM. Under setting [1], this compound showed an Emax of 232%.

In the case of `CN(C)CC1CON=C(C2CCN(C)C2)O1` (stereo not drawn) [compound 605], the “GBA EC1.5” value was found to be 45 µM. The same compound had an Emax under setting [1] of 148%.

Take `N[C@@H]1CN[C@@H](C2=NOCC(CN3CCCCC3)O2)C1` (stereo partly drawn) [compound 557]: the “GBA EC1.5” value is 50 µM. For the same compound, the Emax under setting [1] amounted to 115%.

Turning to `CC(C)C1ON=C(C2CCN(C)C2)OC1CN1CCCCC1` (racemic) [compound 707, rac-6-isopropyl-3-(1-methylpyrrolidin-3-yl)-5-(piperidin-1-ylmethyl)-5,6-dihydro-1,4,2-dioxazine], the “GBA EC1.5” value is 4 µM and 2 µM. Further, under setting [1], the Emax worked out at 249% and the “GBA Emax” value was determined as 230%.

Take `COc1ccc(CC2(C3=NOCC(CN4CCCCC4)O3)CCNCC2)c(C)n1` (stereo not drawn) [compound 703]: the “GBA EC1.5” value came out at 50 µM. Also, the Emax under setting [1] was determined as 113%.

Take `CC(C)(C1=NOCC(CN2CCCCC2)O1)C1CCNC1` (racemic) [compound 491, rac-5-(piperidin-1-ylmethyl)-3-(2-(pyrrolidin-3-yl)propan-2-yl)-5,6-dihydro-1,4,2-dioxazine]: the “GBA EC1.5” value worked out at 28 µM. Further, the Emax under setting [1] was 230%.

With `CN1CCC(C2=NOCC(CN3CCCCC3)O2)CC1` (racemic) [compound 770, rac-3-(1-methylpiperidin-4-yl)-5-(piperidin-1-ylmethyl)-5,6-dihydro-1,4,2-dioxazine], the “GBA EC1.5” value came out at 9 µM. The compound further came in with an Emax under setting [1] of 265%.

As for `C[C@@H]1ON=C(C2(C)CCNCC2)O[C@H]1CN1CCCCC1` [compound 887], the “GBA EC1.5” value amounted to 5 µM. For the same compound, under setting [1], the Emax came to 233%.

As for `c1ccc(N2CCC(C3=NOCC(CN4CCCCC4)O3)CC2)nc1` (stereo not drawn) [compound 678], the “GBA EC1.5” value is 50 µM. Also, under setting [1], the Emax was found to be 106%.

Take `NC(=O)N1CCC(C2=NOCC(CN3CCCCC3)O2)CC1` (stereo not drawn) [compound 639]: the “GBA EC1.5” value worked out at 50 µM. Moreover, the Emax under setting [1] was found to be 112%.

As for `CC(=O)N1CCC(C2=NOCC(CN3CCCCC3)O2)C1` (stereo not drawn) [compound 674], the “GBA EC1.5” value is 50 µM. Also, the Emax under setting [1] was 123%.

Take `Cn1ccnc1CC1(C2=NOCC(CN3CCCCC3)O2)CCNCC1` (stereo not drawn) [compound 607]: the “GBA EC1.5” value was found to be 50 µM. Under setting [1], this compound showed an Emax of 123%.

As for `COc1cc(C)c(CC2(C3=NOCC(CN4CCCCC4)O3)CCNCC2)cn1` (stereo not drawn) [compound 702], the “GBA EC1.5” value worked out at 50 µM. Also, the Emax under setting [1] was 110%.

Consider `COc1ncc(CC2(C3=NOC(C)C(CN4CCCCC4)O3)CCNC2)cc1Cl` (stereo not drawn) [compound 647], for which the “GBA EC1.5” value amounted to 50 µM. The Emax under setting [1] is 103%.

For `CN1CCCC(C(C)(C)C2=NOCC(CN3CCCCC3)O2)C1` (racemic) [compound 595, rac-3-(2-(1-methylpiperidin-3-yl)propan-2-yl)-5-(piperidin-1-ylmethyl)-5,6-dihydro-1,4,2-dioxazine], the “GBA EC1.5” value is 6 µM. Moreover, under setting [1], the Emax came to 172%.

On to `c1nc2n(n1)CCC(C1=NOCC(CN3CCCCC3)O1)C2` (stereo not drawn) [compound 662], for which the “GBA EC1.5” value amounted to 50 µM. Under setting [1], this compound displayed a maximum response (Emax) of 138%.

In the case of `C1CCN(CCC2=NOC[C@@H](CN3CCCCC3)O2)CC1` [compound 890], the “GBA EC1.5” value was 8 µM. The Emax under setting [1] was found to be 168%.

Turning to `c1cncc(CC2(C3=NOCC(CN4CCCCC4)O3)CCNC2)c1` (racemic) [compound 643, rac-5-(piperidin-1-ylmethyl)-3-(3-(pyridin-3-ylmethyl)pyrrolidin-3-yl)-5,6-dihydro-1,4,2-dioxazine], the “GBA EC1.5” value amounted to 18 µM. Further, under setting [1], the Emax worked out at 178%.

Regarding `C1CCN(CC2CON=C([C@]34CNC[C@H]3COC4)O2)CC1` (relative stereo) [compound 494, rac-rel-trans-(3aR,6aR)-3a-(5-(piperidin-1-ylmethyl)-5,6-dihydro-1,4,2-dioxazin-3-yl)hexahydro-1H-furo[3,4-c]pyrrole], the “GBA EC1.5” value worked out at 18 µM. This compound also came in with an Emax under setting [1] of 307%.

Turning to `c1ccc(N2CCCC(C3=NOCC(CN4CCCCC4)O3)C2)nc1` (stereo not drawn) [compound 661], the “GBA EC1.5” value stood at 50 µM. Also, the Emax under setting [1] was 140%.

Regarding `CN1CC2CC[C@H](C1)N2CC1CON=C(C2(C)CCNCC2)O1` (stereo partly drawn) [compound 627], the “GBA EC1.5” value amounted to 48 µM. In addition, the Emax under setting [1] turned out to be 133%.

As for `CC1(C2=NOCC(CN3CCCCC3)O2)CCCN1` (racemic) [compound 566, rac-3-(2-methylpyrrolidin-2-yl)-5-(piperidin-1-ylmethyl)-5,6-dihydro-1,4,2-dioxazine], the “GBA EC1.5” value is 36 µM. In addition, the Emax under setting [1] was determined as 164%.

As to `C1CCN(CC2CON=C(C34CCCNCC3C4)O2)CC1` (racemic) [compound 519, rac-3-(3-azabicyclo[5.1.0]octan-7-yl)-5-(piperidin-1-ylmethyl)-5,6-dihydro-1,4,2-dioxazine], the “GBA EC1.5” value came out at 40 µM. The compound further gave an Emax under setting [1] of 159%.

On to `CN1CC[C@@H]2CN(CC3CON=C(C4(C)CCNCC4)O3)C[C@@H]21` (stereo partly drawn) [compound 555], for which the “GBA EC1.5” value amounted to 50 µM. The compound also yielded an Emax under setting [1] of 114%.

For the compound `CC1(C2=NOCC(CN3CCCCC3)O2)CCNCC1` (single isomer, unassigned) [compound 567], the “GBA EC1.5” value amounted to 7 µM. This compound displayed a maximal response (Emax) under setting [1] of 296%.

Take `CN1CCC2CN(CC3CON=C(C4(C)CCNCC4)O3)CC2C1` (stereo not drawn) [compound 602]: the “GBA EC1.5” value amounted to 50 µM. This compound registered an Emax under setting [1] of 121%.

Turning to `Nc1ccc(N2CCC(C3=NOCC(CN4CCCCC4)O3)C2)nc1` (stereo not drawn) [compound 698], the “GBA EC1.5” value worked out at 50 µM. Moreover, under setting [1], the Emax is 137%.

Consider `CC1ON=C(C2CCN(C(C)C)C2)OC1CN1CCCCC1` (racemic) [compound 621, rac-3-(1-isopropylpyrrolidin-3-yl)-6-methyl-5-(piperidin-1-ylmethyl)-5,6-dihydro-1,4,2-dioxazine], for which the “GBA EC1.5” value came out at 10 µM. Also, the Emax under setting [1] stood at 276%.

Regarding `C1CCN(CC2CON=C(C3CN4CCC3CC4)O2)CC1` (racemic) [compound 644, rac-5-(piperidin-1-ylmethyl)-3-(quinuclidin-3-yl)-5,6-dihydro-1,4,2-dioxazine], the “GBA EC1.5” value was 5 µM. The Emax under setting [1] stood at 264%.

Consider `COCCC1(C2=NOCC(CN3CCCCC3)O2)CCNCC1` (racemic) [compound 726, rac-3-(4-(2-methoxyethyl)piperidin-4-yl)-5-(piperidin-1-ylmethyl)-5,6-dihydro-1,4,2-dioxazine], for which the “GBA EC1.5” value came to 8 µM. The Emax under setting [1] worked out at 269%.

As to `Fc1cccc(C2(C3=NOCC(CN4CCCCC4)O3)CCCNC2)n1` (stereo not drawn) [compound 598], the “GBA EC1.5” value stood at 1 µM. The Emax under setting [1] turned out to be 179%.

Take `COc1ncc(CC2(C3=NOCC(CN4CCCCC4)O3)CCNCC2)cc1Cl` (stereo not drawn) [compound 545]: the “GBA EC1.5” value was found to be 1 µM. For the same compound, the Emax under setting [1] came to 140%.

As for `N[C@H]1CN[C@@H](C2=NOCC(CN3CCCCC3)O2)C1` (stereo partly drawn) [compound 564], the “GBA EC1.5” value came out at 50 µM. The compound further had an Emax under setting [1] of 104%.

As for `FC(F)(F)CN1CCCC(C2=NOCC(CN3CCCCC3)O2)C1` (stereo not drawn) [compound 570], the “GBA EC1.5” value is 50 µM. The compound further gave an Emax under setting [1] of 107%.

With `C1CCN(CC2CON=C(C3(C4CCNCC4)CC3)O2)CC1` (racemic) [compound 521, rac-5-(piperidin-1-ylmethyl)-3-(1-(piperidin-4-yl)cyclopropyl)-5,6-dihydro-1,4,2-dioxazine], the “GBA EC1.5” value was 19 µM. Under setting [1], this compound showed an Emax of 336%.

In the case of `c1sc(C2CCNCC2)nc1C1=NOCC(CN2CCCCC2)O1` (stereo not drawn) [compound 878], the “GBA EC1.5” value was found to be 3 µM. The Emax under setting [1] worked out at 231%.

Regarding `c1ncn2c1CC(C1=NOCC(CN3CCCCC3)O1)CC2` (racemic) [compound 655, rac-5-(piperidin-1-ylmethyl)-3-(5,6,7,8-tetrahydroimidazo[1,5-a]pyridin-7-yl)-5,6-dihydro-1,4,2-dioxazine], the “GBA EC1.5” value was 8 µM. Under setting [1], this compound showed an Emax of 232%.

On to `CN(C)C(=O)N1CCCC1C1=NOCC(CN2CCCCC2)O1` (stereo not drawn) [compound 694], for which the “GBA EC1.5” value worked out at 50 µM. Under setting [1], this compound came in with a maximum response (Emax) of 115%.
